Here are results for one compound from patent US10576052B2, “Composition preventing bacterial inflammation in monogastric animals” (PERSTORP AB, priority 2015, dated 2020).

The structures appear in SMILES notation.

In one experiment the test system is Salmonella. The experiment can be described thus: In vitro Salmonella growth inhibition. In kind it is cell-based.
Experiment [1] has as its system GLP-2 positive cells in the small intestine (jejunum and ileum). In words: Quantification of GLP-2 positive cells in villi and crypts of jejunum and ileum of broiler chickens fed supplemented feed. In kind it is in vivo, Ross broiler chickens. Conditions: 5.6 g/kg feed from day of hatch, sampled at age of ten days. The source says: […] one-day-old Ross broiler chickens were obtained from a local hatchery. The animals were divided at random in two equal groups: one experimental groups, and one control group. The groups were housed on wood shavings in separate containers of 0.96 m^2. Commercial feed and drinking water was provided ad libitum, From the day of hatch, the experimental group received feed supplemented with glyceryl monovalerate (MV; Perstorp, 5.6 g/kg feed), according to the suppliers recommendations (in-feed supplementation). The control group, received unsupplemented feed. At the age of ten days, the animals were killed by injecting an intravenous overdose of pentobarbital and sampling was performed. Samples (1 cm in length) of jejunum and ileumn were submerged in 4% phosphate buffered (wt/vol) formaldehyde within 15 minutes after euthanasia. […] For each animal, the area of 10 randomly chosen villi and 30 randomly chosen crypts was measured for jejunum and ileum using LAS V3.8 software (Leica Microsystems GmbH, Wetzlar, Germany). In total 80 areas per bird were analysed. For every defined area, the number of cells was counted at magnification ×400. Only cells with a detectable nucleus were counted. The average number of cells per area villus or crypt (cells/mm^2) was calculated for each bird. […]

The subject of the next experiment is HilA expression. The experiment can be described thus: Invasive gene expression (HilA expression) in Salmonella. In kind it is cell-based.

Consider `CCCCC(=O)OCC(O)CO` (stereo not shown) [glyceryl monovalerate], for which the “inhibition of Salmonella growth” value in the experiment with Salmonella is listed as “effective inhibitor”. Moreover, the “average number of GLP-2 positive cells in the villi of jejunum and ileum, experimental group vs control group” value in experiment [1] (P≤0.001, FIG. 1) was “statistically higher”. The “average numbers of GLP2-positive cells in the crypts of jejunum and ileum, experimental group vs control group” value in experiment [1] (P≤0.05, FIG. 2) is “statistically higher”. In the experiment on HilA expression, the “invasive gene expression (HilA expression) in Salmonella” value is listed as “down-regulated”.
